Test results taken from article PMC7150870 (Toxins, 2020).
pIC50: −log10 of the molar value. Marks after values point to notes of the source that are not given here.

Columns and labels:
Caco-2 cells [1] = conditions: cited from earlier work
HEK293T = type: cell-based, human
P-gp = P-gp (Homo sapiens, UniProt P08183)
Caco-2 cells [2] = conditions: human (Caco-2), mouse (RAW 264.7)
cells = conditions: cited from earlier work
in vitro = conditions: human (HepG2, Caco-2, HEK 293T); mouse (RAW 264.7)
[3] = tested on: human colon adenocarcinoma HT29 cells; conditions: cited from earlier work
Caco-2 cells [4] = conditions: cited from earlier work; remark: listed apart in the source
[5] = tested on: human small intestinal cells; conditions: read-out: IC50 (not achieved up to); cited from earlier work
mice = conditions: mouse, in vivo, po; cited from earlier work
[6] = tested on: TK6, and human hepatic HepaRG cells; conditions: 25 µM; cited from earlier work
epithelial cell layers = conditions: after 24 h; cited from earlier work
HEK293 cells = conditions: for 2 h; cited from earlier work

Chain of P-gp (P08183 whole entry, looked up): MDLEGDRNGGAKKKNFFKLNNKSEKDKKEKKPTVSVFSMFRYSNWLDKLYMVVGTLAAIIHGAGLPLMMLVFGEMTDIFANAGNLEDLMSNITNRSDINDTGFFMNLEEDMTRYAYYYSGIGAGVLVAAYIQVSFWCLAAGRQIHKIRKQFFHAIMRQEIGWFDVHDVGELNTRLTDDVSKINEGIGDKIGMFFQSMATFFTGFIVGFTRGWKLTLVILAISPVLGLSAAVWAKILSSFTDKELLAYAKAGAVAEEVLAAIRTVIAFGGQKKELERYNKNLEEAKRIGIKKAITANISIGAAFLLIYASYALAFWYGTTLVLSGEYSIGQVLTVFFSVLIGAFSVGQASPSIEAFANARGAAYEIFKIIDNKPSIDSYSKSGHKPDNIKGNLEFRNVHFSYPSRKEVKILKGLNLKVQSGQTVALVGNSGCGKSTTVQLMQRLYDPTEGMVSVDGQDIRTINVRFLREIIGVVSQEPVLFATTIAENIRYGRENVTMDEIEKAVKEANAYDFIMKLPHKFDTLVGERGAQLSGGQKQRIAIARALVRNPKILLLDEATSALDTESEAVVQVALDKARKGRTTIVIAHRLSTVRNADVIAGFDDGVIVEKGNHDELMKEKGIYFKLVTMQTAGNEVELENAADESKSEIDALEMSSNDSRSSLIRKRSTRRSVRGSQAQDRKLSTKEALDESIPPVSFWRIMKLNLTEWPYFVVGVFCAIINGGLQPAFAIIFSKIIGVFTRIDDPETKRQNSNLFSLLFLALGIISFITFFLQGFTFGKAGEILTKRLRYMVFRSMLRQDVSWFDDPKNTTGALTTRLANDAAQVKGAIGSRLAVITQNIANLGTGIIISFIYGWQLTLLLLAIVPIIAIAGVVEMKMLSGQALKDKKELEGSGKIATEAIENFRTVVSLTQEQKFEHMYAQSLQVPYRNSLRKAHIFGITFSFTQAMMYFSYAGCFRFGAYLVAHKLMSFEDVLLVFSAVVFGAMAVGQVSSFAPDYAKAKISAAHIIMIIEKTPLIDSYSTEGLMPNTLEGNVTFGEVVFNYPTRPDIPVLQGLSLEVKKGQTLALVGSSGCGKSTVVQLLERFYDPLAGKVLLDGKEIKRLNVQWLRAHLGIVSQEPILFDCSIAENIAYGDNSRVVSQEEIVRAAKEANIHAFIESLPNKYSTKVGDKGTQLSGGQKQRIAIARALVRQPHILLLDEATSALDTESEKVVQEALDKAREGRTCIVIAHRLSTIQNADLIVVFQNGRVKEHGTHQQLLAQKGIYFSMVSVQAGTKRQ

C[C@H]1CCC[C@@H](O)CCC/C=C/c2cc(O)cc(O)c2C(=O)O1 [β-ZEA]
share of total metabolites produced by Caco-2 cells (Caco-2 cells [1]): 32%

Cc1cc(O)cc2oc(=O)c3c(O)cc(O)cc3c12 [AOH, alternariol]
combination index, mixture of DAS (6.58 nM) (HEK293T): 0.91 ± 0.07 Add
combination index, mixture of HT-2 (21.22 nM) (HEK293T): 0.92 ± 0.02 Add
combination index, mixture of T-2 (3.87 nM) (HEK293T): 1.00 ± 0.09 Add
type of interaction, mixture of DAS (6.58 nM) (HEK293T): 0.91 ± 0.07 Add (key: Syn: Combination index (CI) < 0.9; Add: 0.9 ≤ CI ≤ 1; Ant: CI > 1)
type of interaction, mixture of HT-2 (21.22 nM) (HEK293T): 0.92 ± 0.02 Add (key: Syn: Combination index (CI) < 0.9; Add: 0.9 ≤ CI ≤ 1; Ant: CI > 1)
type of interaction, mixture of T-2 (3.87 nM) (HEK293T): 1.00 ± 0.09 Add (key: Syn: Combination index (CI) < 0.9; Add: 0.9 ≤ CI ≤ 1; Ant: CI > 1)
percentage of DNA in comet tail with respect to the negative control (HEK 293T cells): significantly increased
comet tails (percentage of DNA) (HEK 293T cells; 25 µM, 24 h): about 55%
P-gp activation (ATP consumption) (P-gp): activated P-gp in dose-dependent manner
metabolites found by non-target U-HPLC-MS analysis (Caco-2 cells [2]): 3-O-glucuronide and 9-O-glucuronide
transepithelial transport, Apical Medium (Caco-2 cells [2]): 39.00 ± 22.02^cd %
transepithelial transport, Basolateral Medium (Caco-2 cells [2]): 59.97 ± 2.86^h %
transepithelial transport, Caco-2 Cells (Caco-2 cells [2]): 0.04 ± 0.02^a %
transepithelial transport, Raw 264.7 Cells (Caco-2 cells [2]): 0.07 ± 0.02^h %
transepithelial transport, Total (Caco-2 cells [2]): 99.08 ± 24.47^e %
concentration with statistically significant decrease in viability of cells (cells): 50 µM
pIC50 (in vitro): < 7.30
concentrations significantly increasing the rate of DNA breaks [3]: ≥ 1000 nM

CC[C@H](C)[C@H]1C(=O)O[C@H](C(C)C)C(=O)N(C)[C@@H](C(C)C)C(=O)O[C@H](C(C)C)C(=O)N(C)[C@@H](C(C)C)C(=O)O[C@H](C(C)C)C(=O)N1C [ENN-B1, enniatin B1]
combination index, mixture of DAS (6.58 nM) (HEK293T): 0.82 ± 0.06 Syn
combination index, mixture of HT-2 (21.22 nM) (HEK293T): 0.90 ± 0.05 Add
combination index, mixture of T-2 (3.87 nM) (HEK293T): 0.88 ± 0.07 Syn
type of interaction, mixture of DAS (6.58 nM) (HEK293T): 0.82 ± 0.06 Syn (key: Syn: Combination index (CI) < 0.9; Add: 0.9 ≤ CI ≤ 1; Ant: CI > 1)
type of interaction, mixture of HT-2 (21.22 nM) (HEK293T): 0.90 ± 0.05 Add (key: Syn: Combination index (CI) < 0.9; Add: 0.9 ≤ CI ≤ 1; Ant: CI > 1)
type of interaction, mixture of T-2 (3.87 nM) (HEK293T): 0.88 ± 0.07 Syn (key: Syn: Combination index (CI) < 0.9; Add: 0.9 ≤ CI ≤ 1; Ant: CI > 1)
transepithelial transport, Apical Medium (Caco-2 cells [2]): 10.46 ± 2.43^a %
transepithelial transport, Basolateral Medium (Caco-2 cells [2]): 28.16 ± 3.37^e %
transepithelial transport, Caco-2 Cells (Caco-2 cells [2]): 0.51 ± 0.03^ab %
transepithelial transport, Raw 264.7 Cells (Caco-2 cells [2]): 0.60 ± 0.10^c %
transepithelial transport, Total (Caco-2 cells [2]): 39.72 ± 4.74^ab %
concentration with statistically significant decrease in viability of cells (cells): 2 µM
pIC50 (in vitro): < 7.30
concentration with significant DNA damage (Caco-2 cells [4]): 3000 nM

COc1c(C)c2c(c(O)c1C/C=C(\C)CCC(=O)O)C(=O)OC2 [MPA, mycophenolic acid, reference compound]
combination index, mixture of DAS (6.58 nM) (HEK293T): 0.83 ± 0.07 Syn
combination index, mixture of HT-2 (21.22 nM) (HEK293T): 0.90 ± 0.04 Add
combination index, mixture of T-2 (3.87 nM) (HEK293T): 0.85 ± 0.05 Syn
type of interaction, mixture of DAS (6.58 nM) (HEK293T): 0.83 ± 0.07 Syn (key: Syn: Combination index (CI) < 0.9; Add: 0.9 ≤ CI ≤ 1; Ant: CI > 1)
type of interaction, mixture of HT-2 (21.22 nM) (HEK293T): 0.90 ± 0.04 Add (key: Syn: Combination index (CI) < 0.9; Add: 0.9 ≤ CI ≤ 1; Ant: CI > 1)
type of interaction, mixture of T-2 (3.87 nM) (HEK293T): 0.85 ± 0.05 Syn (key: Syn: Combination index (CI) < 0.9; Add: 0.9 ≤ CI ≤ 1; Ant: CI > 1)
percentage of DNA in comet tail with respect to the negative control (HEK 293T cells): no significant DNA damage
transepithelial transport, Apical Medium (Caco-2 cells [2]): 57.27 ± 0.79^ef %
transepithelial transport, Basolateral Medium (Caco-2 cells [2]): 39.77 ± 0.52^f %
transepithelial transport, Caco-2 Cells (Caco-2 cells [2]): 0.00 ± 0.00^a %
transepithelial transport, Raw 264.7 Cells (Caco-2 cells [2]): 0.02 ± 0.00^a %
transepithelial transport, Total (Caco-2 cells [2]): 97.07 ± 0.27^e %
pIC50 [5]: < 6.81
pIC50 (in vitro): < 7.30

CC1=C[C@H]2O[C@@H]3[C@H](O)C[C@](C)([C@@]2(CO)[C@H](O)C1=O)[C@]31CO1 [DON, deoxynivalenol]
combination index, mixture of DAS (6.58 nM) (HEK293T): 0.88 ± 0.17 Syn
combination index, mixture of HT-2 (21.22 nM) (HEK293T): 0.87 ± 0.04 Syn
combination index, mixture of T-2 (3.87 nM) (HEK293T): 1.29 ± 0.13 Ant
type of interaction, mixture of DAS (6.58 nM) (HEK293T): 0.88 ± 0.17 Syn (key: Syn: Combination index (CI) < 0.9; Add: 0.9 ≤ CI ≤ 1; Ant: CI > 1)
type of interaction, mixture of HT-2 (21.22 nM) (HEK293T): 0.87 ± 0.04 Syn (key: Syn: Combination index (CI) < 0.9; Add: 0.9 ≤ CI ≤ 1; Ant: CI > 1)
type of interaction, mixture of T-2 (3.87 nM) (HEK293T): 1.29 ± 0.13 Ant (key: Syn: Combination index (CI) < 0.9; Add: 0.9 ≤ CI ≤ 1; Ant: CI > 1)
percentage of DNA in comet tail with respect to the negative control (HEK 293T cells): significantly increased
P-gp activation (ATP consumption) (P-gp): activated P-gp in dose-dependent manner
transepithelial transport, Apical Medium (Caco-2 cells [2]): 73.33 ± 2.90^f %
transepithelial transport, Basolateral Medium (Caco-2 cells [2]): 21.48 ± 0.91^cde %
transepithelial transport, Caco-2 Cells (Caco-2 cells [2]): 0.00 ± 0.00^a %
transepithelial transport, Raw 264.7 Cells (Caco-2 cells [2]): 0.01 ± 0.00^a %
transepithelial transport, Total (Caco-2 cells [2]): 94.83 ± 2.14^e %
concentration with statistically significant decrease in viability of cells (cells): 1 µM
LD50 for mice (mice): 46 to 78 mg/kg
genotoxicity [6]: failed to induce genotoxicity
transport through the epithelial cell layers (epithelial cell layers): up to 38%

C[C@H]1CCC[C@H](O)CCC/C=C/c2cc(O)cc(O)c2C(=O)O1 [α-ZEA]
share of total metabolites produced by Caco-2 cells (Caco-2 cells [1]): 41%

C[C@H]1CCCC(=O)CCC/C=C/c2cc(O)cc(O)c2C(=O)O1 [ZEA, zearalenone]
combination index, mixture of DAS (6.58 nM) (HEK293T): 0.85 ± 0.07 Syn
combination index, mixture of HT-2 (21.22 nM) (HEK293T): 0.83 ± 0.03 Syn
combination index, mixture of T-2 (3.87 nM) (HEK293T): 0.92 ± 0.01 Add
type of interaction, mixture of DAS (6.58 nM) (HEK293T): 0.85 ± 0.07 Syn (key: Syn: Combination index (CI) < 0.9; Add: 0.9 ≤ CI ≤ 1; Ant: CI > 1)
type of interaction, mixture of HT-2 (21.22 nM) (HEK293T): 0.83 ± 0.03 Syn (key: Syn: Combination index (CI) < 0.9; Add: 0.9 ≤ CI ≤ 1; Ant: CI > 1)
type of interaction, mixture of T-2 (3.87 nM) (HEK293T): 0.92 ± 0.01 Add (key: Syn: Combination index (CI) < 0.9; Add: 0.9 ≤ CI ≤ 1; Ant: CI > 1)
percentage of DNA in comet tail with respect to the negative control (HEK 293T cells): no significant DNA damage
P-gp activation (ATP consumption) (P-gp): activated P-gp in dose-dependent manner
transepithelial transport, Apical Medium (Caco-2 cells [2]): 32.23 ± 1.71^bc %
transepithelial transport, Basolateral Medium (Caco-2 cells [2]): 54.24 ± 2.38^gh %
transepithelial transport, Caco-2 Cells (Caco-2 cells [2]): 0.19 ± 0.01^ab %
transepithelial transport, Raw 264.7 Cells (Caco-2 cells [2]): 0.05 ± 0.01^a %
transepithelial transport, Total (Caco-2 cells [2]): 86.70 ± 0.67^de %
concentration with statistically significant decrease in viability of cells (cells): 25 µM
pIC50 (in vitro): < 7.30
concentration range damaging DNA in a concentration-dependent manner (HEK293 cells): 2500 to 20000 nM

CC(C)[C@H]1C(=O)O[C@H](C(C)C)C(=O)N(C)[C@@H](C(C)C)C(=O)O[C@H](C(C)C)C(=O)N(C)[C@@H](C(C)C)C(=O)O[C@H](C(C)C)C(=O)N1C [ENN-B, enniatin B]
combination index, mixture of DAS (6.58 nM) (HEK293T): 0.79 ± 0.08 Syn
combination index, mixture of HT-2 (21.22 nM) (HEK293T): 0.87 ± 0.05 Syn
combination index, mixture of T-2 (3.87 nM) (HEK293T): 1.11 ± 0.10 Ant
type of interaction, mixture of DAS (6.58 nM) (HEK293T): 0.79 ± 0.08 Syn (key: Syn: Combination index (CI) < 0.9; Add: 0.9 ≤ CI ≤ 1; Ant: CI > 1)
type of interaction, mixture of HT-2 (21.22 nM) (HEK293T): 0.87 ± 0.05 Syn (key: Syn: Combination index (CI) < 0.9; Add: 0.9 ≤ CI ≤ 1; Ant: CI > 1)
type of interaction, mixture of T-2 (3.87 nM) (HEK293T): 1.11 ± 0.10 Ant (key: Syn: Combination index (CI) < 0.9; Add: 0.9 ≤ CI ≤ 1; Ant: CI > 1)
metabolites found by non-target U-HPLC-MS analysis (Caco-2 cells [2]): metabolite M6
transepithelial transport, Apical Medium (Caco-2 cells [2]): 24.08 ± 3.20^abc %
transepithelial transport, Basolateral Medium (Caco-2 cells [2]): 25.49 ± 4.31^e %
transepithelial transport, Caco-2 Cells (Caco-2 cells [2]): 1.15 ± 0.25^b %
transepithelial transport, Raw 264.7 Cells (Caco-2 cells [2]): 0.31 ± 0.03^b %
transepithelial transport, Total (Caco-2 cells [2]): 51.02 ± 7.70^bc %
concentration with statistically significant decrease in viability of cells (cells): 2 µM
pIC50 (in vitro): < 7.30
genotoxic effect (Caco-2 cells [4]; 3 µM): did not show genotoxic effect
